Laboratory results as given in patent publication US10273226B2, “Pyrazolyl-heteroarylamides as pesticides” (Bayer Animal Health GmbH, priority 2014, dated 2019).

Key:
Format in all cases: in vivo
[1] = system: Ctenocephalides felis; experiment: Ctenocephalides felis in vitro contact test with adult cat fleas; settings: application rate 5 μg/cm^2 (500 g/ha); after 48 h; fleas dead or moribund
Outline: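 Adult Ctenocephalides felis (5-10 per tube) were held 48 h at room temperature in tubes whose inner walls carried dried active ingredient, e.g. 5 μg/cm^2 from a 900 ppm acetone coating. Percent efficacy reflects fleas motionless or uncoordinated after being knocked to the tube base.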

[2] = system: Rhipicephalus sanguineus; experiment: Rhipicephalus sanguineus in vitro contact test with adult brown dog ticks; settings: application rate 5 μg/cm^2 (500 g/ha); after 48 h; ticks dead or moribund
Outline: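 Test tubes (25 ml) were coated by dissolving active ingredient in acetone p.a., diluting to the required concentration, and spreading 250 μl over the inner walls and base on an orbital shaker at 30 rpm for 2 h. Once dry, 5-10 adult Rhipicephalus sanguineus were added, and tubes were capped with perforated lids and kept horizontal in darkness at room temperature. At 48 h, ticks were knocked down and heated at 45-50° C. for up to 5 min. Those unable to climb away were counted dead or moribund, and efficacy ran from 0% to 100%.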

[3] = system: Amblyomma hebraeum; experiment: Amblyomma hebraeum test (tick nymphs, immersion); settings: application rate 100 ppm; tick nymphs immersed one minute; after 42 days
Method: (§1) Solvent: dimethyl sulphoxide
To produce an appropriate active ingredient formulation, 10 mg of active ingredient are mixed with 0.5 ml of dimethyl sulphoxide, and the concentrate is diluted with water to the desired concentration.
Tick nymphs (Amblyomma hebraeum) are placed into perforated plastic cups and immersed in the desired concentration for one minute. The ticks are transferred on filter paper into a Petri dish and stored in a climate-controlled cabinet.
After 42 days, the kill in % is determined. 100% means that all of the ticks have been killed; 0% means that none of the ticks have been killed.

[4] = system: Boophilus microplus Parkhurst strain, SP-resistant; experiment: Boophilus microplus dip test; settings: application rate 100 ppm, assessed after 7 days
Method: Boophilus microplus—Dip Test
Test animals: cattle ticks (Boophilus microplus) Parkhurst strain, SP-resistant
as §1
10 mg of active ingredient are dissolved in 0.5 ml of dimethyl sulphoxide. For the purpose of producing a suitable formulation, the active ingredient solution is diluted with water to the concentration desired in each case.
This active ingredient formulation is pipetted into tubes. 8-10 adult engorged female cattle ticks (Boophilus microplus) are transferred into a further tube with holes. The tube is immersed into the active ingredient formulation, and all the ticks are completely wetted. After the liquid has run out, the ticks are transferred on filter discs into plastic dishes and stored in a climate-controlled room.
Efficacy is assessed after 7 days by laying of fertile eggs. Eggs which are not visibly fertile are stored in a climate-controlled cabinet until the larvae hatch after about 42 days. An efficacy of 100% means that none of the ticks has laid any fertile eggs; 0% means that all the eggs are fertile.

[5] = system: Boophilus microplus; experiment: Boophilus microplus injection test; settings: application rate 20 μg/animal; injection into abdomen; assessed after 7 days
Outline: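 Scoring was by fertile egg laying 7 days after injection, holding doubtful eggs until larvae hatched at about 42 days; 100% = no fertile eggs, 0% = all eggs fertile. Groups of 5 engorged adult female cattle ticks were each injected abdominally with 1 μl of compound in DMSO.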

[6] = system: Ctenocephalides felis; experiment: Ctenocephalides felis oral test; settings: application rate 100 ppm in citrated cattle blood; after 2 days
Outline: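 Fleas ingest treated citrated cattle blood (DMSO formulation) through parafilm; percent killed assessed after two days.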

[7] = system: Lucilia cuprina; experiment: Lucilia cuprina test; settings: application rate 100 ppm; L1 larvae; after 2 days
Outline: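 Mortality read at 2 days as percent larvae killed (100% = all, 0% = none). Test used roughly 20 first-instar larvae on minced horsemeat dosed with water-diluted DMSO formulation of compound.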

[8] = system: Musca domestica; experiment: Musca domestica test; settings: application rate 100 ppm; adult houseflies; after 2 days
Outline: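 Water-diluted DMSO stock of compound, mixed onto a sugar-treated sponge, served as the sole exposure route for ten adult houseflies. Kill percentage scored at 2 days.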

[9] = system: Myzus persicae; experiment: Myzus persicae spray test; settings: application rate 100 g/ha; after 6 days
Method: Myzus persicae—Spray Test
To produce an appropriate active ingredient formulation, 1 part by weight of active ingredient is dissolved using the specified parts by weight of solvent and made up with water containing an emulsifier concentration of 1000 ppm until the desired concentration is attained. To produce further test concentrations, the preparation is diluted with emulsifier-containing water.
Discs of Chinese cabbage leaves (Brassica pekinensis) infested by all stages of the green peach aphid (Myzus persicae) are sprayed with an active ingredient formulation of the desired concentration.
After 6 days, efficacy in % is determined. 100% means that all the aphids have been killed; 0% means that none of the aphids have been killed.

[10] = system: Phaedon cochleariae; experiment: Phaedon cochleariae spray test; settings: application rate 100 g/ha; larvae; after 7 days
Outline: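 Mortality of Phaedon larvae, in %, was read 7 days after release onto sprayed, dried Brassica pekinensis leaf discs. Test dilutions were prepared in water with 1000 ppm emulsifier. A score of 0% means no larvae died and 100% means all were killed.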

[11] = system: Spodoptera frugiperda; experiment: Spodoptera frugiperda spray test; settings: application rate 100 g/ha; caterpillars; after 7 days
Outline: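 Percent kill of armyworm caterpillars was scored 7 days after they were placed on dried, sprayed Zea mays leaf discs. Spray solutions were made by dissolving active ingredient in solvent and diluting with 1000 ppm emulsifier water.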

[12] = system: Tetranychus urticae; experiment: Tetranychus urticae spray test, OP-resistant; settings: application rate 100 g/ha; after 6 days
Outline: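 Percent kill is assessed 6 days after spraying infested Phaseolus vulgaris leaf discs, with all mite stages present. Compound is applied as a solvent/emulsifier aqueous formulation at the desired concentration.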

Row | Structure (SMILES) | efficacy [1] [%] | efficacy [2] [%] | efficacy (kill in %) [3] [%] | efficacy (laying of fertile eggs) [4] [%] | efficacy (laying of fertile eggs) [5] [%] | efficacy (kill in %) [6] [%] | efficacy (kill in %) [7] [%] | efficacy (kill in %) [8] [%] | efficacy [9] [%] | efficacy [10] [%] | efficacy [11] [%] | efficacy [12] [%]
1 | Cc1cc(C(=O)Nc2cc(-c3cnn(-c4c(C(F)(F)F)c(C(F)(F)C(F)(F)F)nn4C)c3)ccc2F)ccn1 [Example 1-087] | 100 | 80 | 90 | 100 | 100 | 100 | 100 | 100 | 90 | 100 | 100 | 100
2 | Cc1ccc(-c2cnn(-c3c(C(F)(F)F)c(C(F)(F)C(F)(F)F)nn3C)c2)cc1NC(=O)c1ccncc1 [Example 1-040] | 100 | 100 | 100 | 100 | 100 | 100 | 100 | 100 | 100 | 100 | 100 | 100
3 | Cn1nc(C(F)(F)C(F)(F)F)c(C(F)(F)F)c1-n1cc(-c2ccc(F)c(NC(=O)c3ccc(C#N)cc3)c2)cn1 [Example 1-088] | 100 | 100 | 100 | 100 | 100 | 100 | 100 | – | – | 100 | 100 | 100
4 | Cn1nc(C(F)(F)C(F)(F)F)c(C(F)(F)F)c1-n1cc(-c2ccc(Cl)c(NC(=O)c3ccncc3)c2)cn1 [Example 1-024] | 100 | 100 | 100 | 100 | 100 | 100 | 100 | 100 | – | 100 | 100 | 100
5 | Cc1ccc(-c2cnn(-c3c(C(F)(F)F)c(C(F)(F)C(F)(F)F)nn3C)c2)cc1NC(=O)c1ccc(F)cc1 [Example 1-038] | – | 100 | 100 | 100 | 100 | 100 | 100 | – | – | 100 | 100 | 100
6 | Cn1nc(C(F)(F)C(F)(F)F)c(C(F)(F)F)c1-n1cc(-c2ccc(F)c(NC(=O)c3ccncc3)c2)cn1 [Example 1-025] | 100 | 100 | 100 | 100 | 100 | 100 | 100 | 100 | 100 | 100 | 100 | 100
7 | Cn1nc(C(F)(F)C(F)(F)F)c(C(F)(F)F)c1-n1cc(-c2ccc(Cl)c(NC(=O)c3ccc(F)cc3)c2)cn1 [Example 1-022] | 100 | 100 | 100 | 100 | 100 | 100 | 100 | – | – | 100 | 100 | 100
8 | Cn1nc(C(F)(F)C(F)(F)F)c(C(F)(F)F)c1-n1cc(-c2ccc(F)c(NC(=O)c3ccsc3)c2)cn1 [Example 1-041] | 100 | 100 | 100 | 100 | 100 | 100 | 100 | – | 100 | 100 | 100 | 100
9 | Cn1nc(C(F)(F)C(F)(F)F)c(C(F)(F)F)c1-n1cc(-c2ccc(F)c(NC(=O)c3ccnc(F)c3)c2)cn1 [Example 1-089] | 100 | 100 | – | 100 | 100 | 100 | 100 | 100 | 90 | 100 | 100 | 100
